Measurements reported in ChEMBL document CHEMBL1152560, “Substituted 2-arylbenzothiazoles as kinase inhibitors: hit-to-lead optimization” (Bioorg Med Chem, 2009).

What was measured:
[1] = molecular target: T1, Eukaryotic translation initiation factor 2-alpha kinase 3 (Homo sapiens) (UniProt Q9NZJ5); experiment: Residual activity of EIF2AK3 at 1 uM by microplate scintillation counting
T1 sequence (whole entry): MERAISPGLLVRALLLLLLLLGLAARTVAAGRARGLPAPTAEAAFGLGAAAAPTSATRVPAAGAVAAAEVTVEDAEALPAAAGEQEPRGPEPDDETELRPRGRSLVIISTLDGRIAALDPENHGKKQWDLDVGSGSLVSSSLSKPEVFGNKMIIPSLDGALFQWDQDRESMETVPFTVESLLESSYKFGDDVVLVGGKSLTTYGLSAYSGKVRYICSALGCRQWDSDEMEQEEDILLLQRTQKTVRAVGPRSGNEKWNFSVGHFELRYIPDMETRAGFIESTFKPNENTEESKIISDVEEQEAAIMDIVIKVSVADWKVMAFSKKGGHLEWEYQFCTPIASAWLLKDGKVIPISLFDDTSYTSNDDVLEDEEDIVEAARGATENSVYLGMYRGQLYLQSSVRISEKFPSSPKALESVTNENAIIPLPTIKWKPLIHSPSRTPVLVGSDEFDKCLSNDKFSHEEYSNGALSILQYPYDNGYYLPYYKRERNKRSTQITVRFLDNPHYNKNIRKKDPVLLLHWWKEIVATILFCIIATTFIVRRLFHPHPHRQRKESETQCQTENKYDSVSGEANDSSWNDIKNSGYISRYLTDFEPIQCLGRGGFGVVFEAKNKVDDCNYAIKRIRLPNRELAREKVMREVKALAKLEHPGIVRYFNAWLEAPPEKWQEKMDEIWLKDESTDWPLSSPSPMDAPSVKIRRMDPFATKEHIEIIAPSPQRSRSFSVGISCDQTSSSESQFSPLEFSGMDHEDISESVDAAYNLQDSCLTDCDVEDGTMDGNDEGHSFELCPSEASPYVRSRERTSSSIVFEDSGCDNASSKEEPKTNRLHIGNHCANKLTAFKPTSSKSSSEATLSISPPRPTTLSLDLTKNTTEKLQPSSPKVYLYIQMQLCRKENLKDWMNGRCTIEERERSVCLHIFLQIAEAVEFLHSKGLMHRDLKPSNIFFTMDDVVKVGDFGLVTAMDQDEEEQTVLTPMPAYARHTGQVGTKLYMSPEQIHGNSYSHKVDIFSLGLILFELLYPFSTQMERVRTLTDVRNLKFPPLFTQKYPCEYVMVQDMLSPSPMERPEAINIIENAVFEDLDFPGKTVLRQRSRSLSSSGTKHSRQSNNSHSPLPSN

[2] = Residual activity of S6K at 1 uM by microplate scintillation counting
[3] = molecular target: Cyclin-dependent kinase 7/ cyclin H (Homo sapiens) (UniProt P51946+P50613); experiment: Residual activity of CDK7/CyclinH/MAT1 at 0.1 uM by microplate scintillation counting; type: protein-complex assay
[4] = molecular target: Tyrosine-protein kinase Yes (Homo sapiens) (UniProt P07947); experiment: Residual activity of YES at 1 uM by microplate scintillation counting
Tyrosine-protein kinase Yes (Homo sapiens), sequence (P07947 2-543 limits assumed): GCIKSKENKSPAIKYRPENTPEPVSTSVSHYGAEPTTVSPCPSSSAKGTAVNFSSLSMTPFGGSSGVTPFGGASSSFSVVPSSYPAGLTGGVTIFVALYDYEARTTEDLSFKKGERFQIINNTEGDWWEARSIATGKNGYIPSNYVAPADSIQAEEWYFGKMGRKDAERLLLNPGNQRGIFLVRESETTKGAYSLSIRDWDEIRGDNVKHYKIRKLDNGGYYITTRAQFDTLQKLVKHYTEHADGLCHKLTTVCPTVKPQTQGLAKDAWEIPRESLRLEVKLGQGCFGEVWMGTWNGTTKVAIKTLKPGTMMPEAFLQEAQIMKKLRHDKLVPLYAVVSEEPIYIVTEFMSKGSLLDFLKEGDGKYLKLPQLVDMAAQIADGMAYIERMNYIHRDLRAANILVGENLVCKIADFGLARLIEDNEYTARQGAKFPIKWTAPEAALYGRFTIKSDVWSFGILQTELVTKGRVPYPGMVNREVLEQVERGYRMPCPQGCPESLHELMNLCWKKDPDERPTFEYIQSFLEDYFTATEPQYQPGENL

[5] = molecular target: Protein kinase C gamma type (Homo sapiens) (UniProt P05129); experiment: Residual activity of PKCgamma at 1 uM by microplate scintillation counting
[6] = molecular target: T2, Ephrin type-B receptor 4 (Homo sapiens) (UniProt P54760); experiment: Residual activity of EPHB4 at 10 uM by microplate scintillation counting
T2 sequence (whole entry): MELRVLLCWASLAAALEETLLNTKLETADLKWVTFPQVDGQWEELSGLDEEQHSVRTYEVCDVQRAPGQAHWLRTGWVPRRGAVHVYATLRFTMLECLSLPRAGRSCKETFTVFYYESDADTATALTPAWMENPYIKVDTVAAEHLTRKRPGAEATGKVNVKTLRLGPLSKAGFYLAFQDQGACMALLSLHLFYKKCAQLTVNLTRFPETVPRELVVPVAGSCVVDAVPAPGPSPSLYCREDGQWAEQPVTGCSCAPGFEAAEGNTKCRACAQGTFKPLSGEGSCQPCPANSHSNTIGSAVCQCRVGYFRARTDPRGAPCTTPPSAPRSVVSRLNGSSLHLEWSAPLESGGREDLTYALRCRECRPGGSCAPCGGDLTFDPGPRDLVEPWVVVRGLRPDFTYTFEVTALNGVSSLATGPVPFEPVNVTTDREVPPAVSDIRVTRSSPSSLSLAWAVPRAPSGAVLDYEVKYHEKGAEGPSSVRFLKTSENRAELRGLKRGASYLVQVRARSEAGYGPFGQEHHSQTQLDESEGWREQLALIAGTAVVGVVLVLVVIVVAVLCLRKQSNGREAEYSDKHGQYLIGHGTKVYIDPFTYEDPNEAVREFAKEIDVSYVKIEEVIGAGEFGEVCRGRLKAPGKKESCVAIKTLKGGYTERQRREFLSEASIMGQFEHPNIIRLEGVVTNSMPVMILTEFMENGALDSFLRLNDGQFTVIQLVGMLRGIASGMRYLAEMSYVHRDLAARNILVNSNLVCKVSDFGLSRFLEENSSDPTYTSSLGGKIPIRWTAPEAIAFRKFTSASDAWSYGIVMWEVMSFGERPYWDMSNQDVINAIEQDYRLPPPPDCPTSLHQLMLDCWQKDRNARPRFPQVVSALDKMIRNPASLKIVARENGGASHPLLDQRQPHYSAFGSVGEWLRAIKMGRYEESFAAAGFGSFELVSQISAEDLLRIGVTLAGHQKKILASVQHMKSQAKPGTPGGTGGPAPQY

[7] = molecular target: Tyrosine-protein kinase Fgr (Homo sapiens) (UniProt P09769); experiment: Residual activity of FGR at 1 uM by microplate scintillation counting
Tyrosine-protein kinase Fgr (Homo sapiens), sequence (P09769 2-529 limits assumed): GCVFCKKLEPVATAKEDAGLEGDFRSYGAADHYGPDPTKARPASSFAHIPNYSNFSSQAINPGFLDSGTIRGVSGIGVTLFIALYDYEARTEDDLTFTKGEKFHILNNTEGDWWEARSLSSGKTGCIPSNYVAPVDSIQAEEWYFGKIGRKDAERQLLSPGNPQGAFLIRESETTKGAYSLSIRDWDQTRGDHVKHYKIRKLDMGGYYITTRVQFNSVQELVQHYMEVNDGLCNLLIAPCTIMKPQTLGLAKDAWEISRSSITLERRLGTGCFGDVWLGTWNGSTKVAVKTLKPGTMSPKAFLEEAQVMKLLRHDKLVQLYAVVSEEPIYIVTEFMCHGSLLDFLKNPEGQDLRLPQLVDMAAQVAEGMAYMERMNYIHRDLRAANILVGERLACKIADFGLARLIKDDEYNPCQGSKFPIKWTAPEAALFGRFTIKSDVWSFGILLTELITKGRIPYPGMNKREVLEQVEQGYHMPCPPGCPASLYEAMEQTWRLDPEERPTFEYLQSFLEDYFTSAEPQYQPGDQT

[8] = molecular target: Protein kinase C alpha type (Homo sapiens) (UniProt P17252); experiment: Residual activity of PKCalpha at 0.1 uM by microplate scintillation counting
[9] = molecular target: Calcium/calmodulin-dependent protein kinase type II subunit delta (Homo sapiens) (UniProt Q13557); experiment: Residual activity of CAMK2D at 10 uM by microplate scintillation counting
Calcium/calmodulin-dependent protein kinase type II subunit delta (Homo sapiens), sequence (Q13557 whole entry): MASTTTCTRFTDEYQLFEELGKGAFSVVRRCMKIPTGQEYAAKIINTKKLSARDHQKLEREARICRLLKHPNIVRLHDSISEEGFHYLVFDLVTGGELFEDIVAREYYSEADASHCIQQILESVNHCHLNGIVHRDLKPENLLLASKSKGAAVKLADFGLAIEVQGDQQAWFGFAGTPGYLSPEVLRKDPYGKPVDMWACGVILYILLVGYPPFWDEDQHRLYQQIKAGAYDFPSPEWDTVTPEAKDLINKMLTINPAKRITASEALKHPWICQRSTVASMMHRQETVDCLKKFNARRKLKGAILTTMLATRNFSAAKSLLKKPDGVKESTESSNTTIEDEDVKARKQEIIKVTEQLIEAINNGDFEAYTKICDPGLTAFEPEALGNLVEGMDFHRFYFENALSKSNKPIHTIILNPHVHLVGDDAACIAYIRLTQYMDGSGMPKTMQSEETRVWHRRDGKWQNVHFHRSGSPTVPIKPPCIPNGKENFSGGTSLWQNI

[10] = molecular target: CDK1/Cyclin E (Homo sapiens) (UniProt P06493+P24864); experiment: Residual activity of CDK1/Cyclin E at 0.1 uM by microplate scintillation counting; type: protein-complex assay
CDK1/Cyclin E (Homo sapiens), sequence (P06493 whole entry, looked up): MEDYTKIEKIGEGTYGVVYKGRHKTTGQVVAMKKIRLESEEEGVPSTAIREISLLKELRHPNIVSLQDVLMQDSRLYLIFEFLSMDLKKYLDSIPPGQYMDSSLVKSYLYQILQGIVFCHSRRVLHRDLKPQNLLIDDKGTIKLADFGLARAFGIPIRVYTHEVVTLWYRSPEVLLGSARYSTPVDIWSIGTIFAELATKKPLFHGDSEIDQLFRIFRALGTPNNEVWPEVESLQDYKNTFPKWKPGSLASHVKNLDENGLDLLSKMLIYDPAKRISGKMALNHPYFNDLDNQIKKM
CDK1/Cyclin E (Homo sapiens), sequence (P24864 whole entry, looked up): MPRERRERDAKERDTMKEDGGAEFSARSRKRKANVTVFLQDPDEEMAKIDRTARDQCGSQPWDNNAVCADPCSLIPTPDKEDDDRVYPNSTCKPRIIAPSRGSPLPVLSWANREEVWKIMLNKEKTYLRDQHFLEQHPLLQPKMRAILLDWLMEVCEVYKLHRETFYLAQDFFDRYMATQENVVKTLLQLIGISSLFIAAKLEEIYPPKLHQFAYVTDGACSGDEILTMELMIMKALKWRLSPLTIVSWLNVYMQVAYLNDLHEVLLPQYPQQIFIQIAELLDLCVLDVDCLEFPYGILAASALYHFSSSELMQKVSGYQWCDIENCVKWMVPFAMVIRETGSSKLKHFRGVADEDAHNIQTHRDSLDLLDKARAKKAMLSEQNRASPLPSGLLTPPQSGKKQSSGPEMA

residual activity [1] [%]	residual activity [2] [%]	residual activity [3] [%]	residual activity [4] [%]	residual activity [5] [%]	residual activity [6] [%]	residual activity [7] [%]	residual activity [8] [%]	residual activity [9] [%]	residual activity [10] [%]	Compound
102	75	97	84	102	122	94	137	13	78	COc1cc2c(Oc3ccc(-c4nc5ccccc5s4)cc3)ncnc2cc1OCCCN1CCCC1
100	69	104	68	117	154	101	108	28	85	COc1cc2c(Oc3ccc(-c4nc5ccccc5s4)cc3)ncnc2cc1OCCCN1CCN(C)CC1
90	95	86	49	117	99	91	100	44	89	COc1cc2c(Oc3ccc(-c4nc5ccccc5s4)cc3F)ncnc2cc1OCCCN1CCN(C)CC1
